This is an account of results in patent publication US12686701B2, “Substitution of histidine with 2-thiohistidine in bioactive peptides” (University of Vermont and State Agricultural College, priority 2021, dated 2026).

“Also recorded” adds a separate entry of the source. *1 amine or outer side, *2 acyl side, *3 side chain or, on linkers, in order; H or OH if unused. Where a SMILES comes first, the peptide text is derived from it. [ ]: non-standard residue; d: D form. X1 = O=C([C@H](Cc1c[nH]c(=S)[nH]1)N[*:1])[*:2]

Test [1] in a line: DPPH radical scavenging activity (UV-Vis, 517 nm). The format is biochemical. The settings on record: for DPPH Radical TEAC: Trolox equivalent antioxidant capacity, 50 μM DPPH, 15 min, pH 7.0, 60:40 ethanol:buffer, ND = activity too low to be determined, TEAC close to zero; for ability to scavenge DPPH radical (in words): absorbance peak at 517 nm. As for the experimental part: Measurement of 2,2-diphenyl-1-picrylhydrazyl (DPPH) radical scavenging activity. DPPH activity assays were conducted according to procedures known in the art. A 1 mM stock solution of DPPH was prepared by dissolving DPPH in 95% ethanol. Peptide stock solutions were prepared at a concentration of 5 mM in 100 mM potassium phosphate buffer, pH 7.0 for each of the His- and 2-thioHis-containing peptides. 6-hydroxy-2,5,7,8-tetramethylchromane-2-carboxylic acid (Trolox) was used as a standard for antioxidant activity and a positive control. A 5 mM solution of Trolox in 100 mM potassium phosphate, pH 7.0 was prepared. A blank was prepared by mixing 600 μL of 95% ethanol with 400 μL of 100 mM potassium phosphate, pH 7.0 in a cuvette. This solution was used to blank the spectrophotometer from 200-800 nm. In each sample, a 60:40 ratio of ethanol:buffer was maintained. To test the ability of Trolox and the different peptides to reduce DPPH, 50 μM DPPH was combined with different concentrations of peptide or Trolox ranging from 5 μM to 500 μM and the total volume of each sample was adjusted to 1 mL with buffer and ethanol. The samples were allowed to incubate at room temperature in the dark for 15 min, after which each sample was scanned and changes in the absorbance at 517 nm were monitored. Trials were run in triplicate for each of the peptides and Trolox. For every trial, one sample was prepared with only 50 μM DPPH (no peptide or Trolox) to serve as a control. The percentage of inhibition of DPPH oxidation was calculated using Equation 1:
[formula] where Acontrol is the absorbance of the control (DPPH and buffer only) and Asample is the absorbance at 517 nm of the test peptide/standard. A Trolox calibration curve was prepared with concentrations ranging from 5-50 μM (FIG. 13). Similar curves were prepared for each of the peptides (FIG. 13). These curves were used to calculate Trolox equivalent antioxidant capacity (TEAC) values for each of the peptides by calculating the ratio of peptide to Trolox to achieve the same percent reduction of DPPH.

The nature of test [2]: Hydroxyl radical scavenging activity by room temperature EPR (Fenton reaction, DMPO spin trap). It is filed as biochemical. The following applies: for Hydroxyl Radical RSA (%): all analytes at 1 mM, potassium phosphate pH 7.4, average of three or more trials; for increase in ·OH scavenging ability on substituting 2-thioHis for His: difference of RSA versus His-containing counterpart; for increase in ·OH scavenging ability on substituting 2-thioHis for His / ability to scavenge ·OH (in words): 1 mM. As for the experimental part:
Measurement of hydroxyl radical scavenging activity. Hydroxyl radical scavenging activity of peptides was measured with room temperature EPR spectroscopy according to known methods with some modifications. Hydroxyl radicals were generated by the iron-catalyzed Fenton Haber-Weiss reaction, and the generated hydroxyl radicals were reacted with the nitrone spin trap 5,5-dimethyl-1-pyrroline-N-oxide (DMPO). The resultant DMPO-OH adducts were detectable with EPR spectroscopy. The peptide (1 mM final concentration) was added to a solution containing: 24 mM DMPO, 0.8 mM FeSO4, and 0.8 mM H2O2 in 100 mM potassium phosphate buffer, pH 7.4 in a final reaction volume of 250 μL. This solution was immediately transferred into a 50 μL quartz capillary tube. After 5 min, the EPR spectrum was recorded using a Bruker X-band EPR spectrometer operating at 9.42 GHz. The experimental conditions employed were as follows: magnetic field, 336.5±10 mT; power, 2 mW; modulation amplitude, 2.00 G; time constant, 327.68 ms, modulation frequency, 100 kHz; receiver gain, 30 dB sweep time, 60 s. Trials were performed in triplicate for each peptide. The double integral of the EPR spectra was obtained and used to determine the signal intensity for each sample. The hydroxyl radical scavenging ability was calculated using Equation 3, in which H and H0 are relative peak height of radical signals with and without sample, respectively. [formula]

A short description of test [3]: ABTS radical scavenging activity (UV-Vis, 734 nm). The format is biochemical. The following applies: for ABTS radical TEAC: Trolox equivalent antioxidant capacity, 10 min, PBS pH 7.2, average of three or more trials, ND = activity too low to be determined, TEAC close to zero; for ability to scavenge ABTS radical (in words): absorbance peak at 734 nm. As for the experimental part:
Measurement of 2,2′-azino-di-[3-ethylbenzthiazoline sulfonate (6)] (ABTS) radical scavenging activity. ABTS scavenging assays were performed according to previously published protocols with some modifications. A 10 mM stock solution of potassium persulfate was prepared in deionized water. A stock solution of ABTS was prepared by dissolving 7 mM ABTS and 2.45 mM potassium persulfate in deionized water. This solution was allowed to incubate at room temperature in the dark for 12-16 h to allow potassium persulfate to oxidize the ABTS. Following oxidation, the solution was a dark blue/green color. This solution was stable in the dark at room temperature for at least 48 h. This solution was diluted with 100 mM phosphate buffered saline, pH 7.2 so that the final absorbance was 0.70±0.02 at 734 nm. Stock solutions for all peptides and for Trolox were prepared in a range from 0.1 mM to 3.2 mM in 100 mM phosphate buffered saline, pH 7.2. To test the ability of Trolox and peptides to reduce the ABTS radical cation, samples were prepared with 990 μL of the diluted ABTS solution and 10 μL of each of the peptide or Trolox stock solutions. For every trial, one sample was prepared with 990 μL ABTS and 10 μL of buffer. The samples were allowed to incubate at room temperature in the dark for 10 min. The spectrophotometer was blanked with 1 mL of 100 mM phosphate buffered saline, pH 7.2 from 200-800 nm. Scans were taken for each of the samples and the change in absorbance at 734 nm was monitored. Every sample was run in triplicate and the results were averaged. The percentage of inhibition of ABTS oxidation was calculated using Equation 2.
[formula] where Acontrol is the absorbance of the control (ABTS and buffer only) and Asample is the absorbance at 734 nm of the test peptide/standard. A Trolox calibration curve was prepared with concentrations ranging from 1-32 μM (FIG. 14). Similar curves were prepared for each of the peptides (FIG. 14). These curves were used to calculate TEAC values for each of the peptides by calculating the ratio of peptide to Trolox to achieve the same percent reduction of ABTS.

A short description of test [4]: Low temperature (95 K) EPR of peptide-Cu(II) complexes. The format is binding. The settings on record: from EPR spectra, not quantified. As for the experimental part: Low temperature EPR studies. The ability of each peptide to bind Cu(II) was determined by low temperature (95 K) EPR spectroscopy using the methods known in the art with some modifications. Samples of 200 μM and 400 μM peptide were incubated for 10 min at room temperature with 200 μM CuCl2 in 100 mM potassium phosphate, pH 7.4. Following incubation, aliquots of each sample were transferred into 4 mm inner diameter quartz EPR tubes (Wilmad-LabGlass). The samples were frozen in liquid nitrogen and stored in liquid nitrogen prior to use. Control samples were prepared with only buffer and with 200 μM CuCl2 in potassium phosphate buffer. Low temperature EPR spectra were gathered with a Bruker EPR spectrometer operating at 9.42 GHz with the following parameters: scan range, 6000 G; field set, 3200 G; time constant, 164 ms; scan time, 60 s; modulation amplitude, 7.000 G; modulation frequency, 100 kHz; receiver gain, 30 dB; microwave power, 20 mW; and number of scans, 5.

On to `NC(Cc1c[nH]c(=S)[nH]1)C(=O)O` [2-thioHis, L-2-thiohistidine], for which, in test [1], the “DPPH Radical TEAC” value turned out to be 1.00 ± 0.02 and the “ability to scavenge DPPH radical (in words)” value is reported as “same ability as Trolox”. Further, in test [2], the “Hydroxyl Radical RSA (%)” value turned out to be 56.0 ± 2.1% and the “increase in ·OH scavenging ability on substituting 2-thioHis for His” value (“increase in ·OH scavenging ability” below) is reported as 7.5%. Besides, in test [3], the “ABTS radical TEAC” value is 1.50 ± 0.03.

In the case of `NCCC(=O)N[C@@H](Cc1cnc[nH]1)C(=O)O` [Carnosine, H-βAH-OH, reference compound], in test [2], the “ability to scavenge ·OH (in words)” value is listed as “not a good ·OH scavenger” and the “Hydroxyl Radical RSA (%)” value is recorded as 31.4 ± 4.2%.

Take `N[C@@H](Cc1c[nH]cn1)C(=O)O` [His, histidine]: the “Hydroxyl Radical RSA (%)” value in test [2] came to 48.5 ± 7.3%.

As to `Cc1c(C)c2c(c(C)c1O)CCC(C)(C(=O)O)O2` (centres unmarked) [Trolox, 6-hydroxy-2,5,7,8-tetramethylchromane-2-carboxylic acid, reference compound], the “DPPH Radical TEAC” value in test [1] came out at 1.00. The “ABTS radical TEAC” value in test [3] stood at 1.00.

On to `CC(C)C[C@H](NC(=O)[C@@H]1CCCN1C(=O)CNC(=O)[C@H](CC(C)C)NC(=O)[C@@H]1CCCN1C(=O)CNC(=O)[C@@H](N)Cc1c[nH]c(=S)[nH]1)C(=O)O` [thioHGPLGPL, H-thioHGPLGPL-OH] (H-[X1]GPLGPL-OH), for which, in test [1], the “DPPH Radical TEAC” value is reported as 0.95 ± 0.01. Besides, in test [2], the “ability to scavenge ·OH (in words)” value was “equivalent to 2-thioHis itself”, the “Hydroxyl Radical RSA (%)” value came to 59.7 ± 3.0% and the “increase in ·OH scavenging ability” value came to 12%. The “ABTS radical TEAC” value in test [3] was 2.14 ± 0.02.

Consider H-GHK-OH [reference compound], for which the “ability to scavenge DPPH radical (in words)” value in test [1] is given as “only a slight decrease in the DPPH absorbance peak at 517 nm”. The “Hydroxyl Radical RSA (%)” value in test [2] is on record as 65.4 ± 0.008%. Also, the “ability to scavenge ABTS radical (in words)” value in test [3] is “no decrease in the ABTS absorbance peak at 734 nm”.

Take H-GthioHK-OH: in test [1], the “DPPH Radical TEAC” value was 0.95 ± 0.02; the “ability to scavenge DPPH radical (in words)” value is “completely reduce the DPPH and ABTS radicals”. Further, in test [2], the “ability to scavenge ·OH (in words)” value was “highest RSA of all compounds tested; also recorded: nearly completely abolishing the signal”, the “Hydroxyl Radical RSA (%)” value is 97.0 ± 0.3% and the “increase in ·OH scavenging ability” value is given as 31.6%. Besides, in test [3], the “ABTS radical TEAC” value was 2.61 ± 0.01; the “ability to scavenge ABTS radical (in words)” value was “completely reduce the DPPH and ABTS radicals; also recorded: slightly higher TEAC value than the other 2-thioHis peptides”.

Regarding H-βAthioH-OH [thioHcarnosine], the “DPPH Radical TEAC” value in test [1] came to 0.80 ± 0.01. In test [2], the “ability to scavenge ·OH (in words)” value is “less than 2-thioHis”, the “Hydroxyl Radical RSA (%)” value stood at 43.5 ± 1.1% and the “increase in ·OH scavenging ability” value is recorded as 13%. The “affinity for / binding of Cu(II) (in words)” value in test [4] is recorded as “higher affinity for Cu(II) than carnosine”. Also, in test [3], the “ABTS radical TEAC” value was determined as 2.25 ± 0.05.

Turning to “HGPLGPL [H-HGPLGPL-OH, reference compound]”, the “Hydroxyl Radical RSA (%)” value in test [2] turned out to be 46.8 ± 1.3%.
